Several values for one entry are separate records, joined by “and”; a condition that tells them apart may be missing. Equal entries are not always repeated.
Assay: xn = mol fraction of the nth substance listed
Conditions: Fluid (supercritical or subcritical phases), quasistatic thermogram and barogram, x2 = 0.7393

N [ammonia] + O
Conditions | thermal pressure coefficient
594.84 K, Mass density=120.03 kg/m3 | 91 kPa/K
594.84 K, Mass density=147.43 kg/m3 | 126 kPa/K
595.16 K, Mass density=376.89 kg/m3 | 205 kPa/K and 295 kPa/K
595.35 K, Mass density=147.43 kg/m3 | 124 kPa/K
595.35 K, Mass density=456.58 kg/m3 | 451 kPa/K
595.53 K, Mass density=342.18 kg/m3 | 199 kPa/K
595.61 K, Mass density=285.71 kg/m3 | 196 kPa/K
595.78 K, Mass density=309.95 kg/m3 | 200 kPa/K
595.78 K, Mass density=376.89 kg/m3 | 296 kPa/K
596.04 K, Mass density=160.07 kg/m3 | 183 kPa/K
596.04 K, Mass density=227.54 kg/m3 | 195 kPa/K
596.47 K, Mass density=308.35 kg/m3 | 205 kPa/K
596.73 K, Mass density=307.35 kg/m3 | 201 kPa/K
596.9 K, Mass density=271.09 kg/m3 | 199 kPa/K
597.08 K, Mass density=342.18 kg/m3 | 198 kPa/K
597.33 K, Mass density=160.07 kg/m3 | 151 kPa/K
597.33 K, Mass density=311.19 kg/m3 | 199 kPa/K
597.33 K, Mass density=376.89 kg/m3 | 306 kPa/K
597.35 K, Mass density=160.07 kg/m3 | 174 kPa/K and 147 kPa/K
597.42 K, Mass density=295.31 kg/m3 | 196 kPa/K
597.5 K, Mass density=188.05 kg/m3 | 187 kPa/K
597.56 K, Mass density=342.18 kg/m3 | 197 kPa/K and 261 kPa/K
597.59 K, Mass density=218.92 kg/m3 | 197 kPa/K
597.76 K, Mass density=292.97 kg/m3 | 199 kPa/K
598.19 K, Mass density=224.53 kg/m3 | 198 kPa/K
598.28 K, Mass density=376.89 kg/m3 | 311 kPa/K
598.33 K, Mass density=329 kg/m3 | 195 kPa/K and 249 kPa/K
598.36 K, Mass density=160.07 kg/m3 | 140 kPa/K
598.45 K, Mass density=320.33 kg/m3 | 197 kPa/K
598.54 K, Mass density=297.6 kg/m3 | 191 kPa/K
598.57 K, Mass density=301.94 kg/m3 | 199 kPa/K
598.63 K, Mass density=291.16 kg/m3 | 201 kPa/K
598.71 K, Mass density=297.6 kg/m3 | 192 kPa/K
598.96 K, Mass density=243.97 kg/m3 | 201 kPa/K
598.96 K, Mass density=320.33 kg/m3 | 192 kPa/K and 246 kPa/K
598.97 K, Mass density=376.89 kg/m3 | 311 kPa/K
599.05 K, Mass density=160.07 kg/m3 | 139 kPa/K
599.05 K, Mass density=299.79 kg/m3 | 192 kPa/K
599.05 K, Mass density=329 kg/m3 | 258 kPa/K
599.14 K, Mass density=160.07 kg/m3 | 137 kPa/K
599.22 K, Mass density=214.43 kg/m3 | 201 kPa/K
599.42 K, Mass density=312.91 kg/m3 | 192 kPa/K and 244 kPa/K
599.44 K, Mass density=320.33 kg/m3 | 250 kPa/K
599.52 K, Mass density=206.01 kg/m3 | 198 kPa/K
599.57 K, Mass density=311.19 kg/m3 | 193 kPa/K and 240 kPa/K
599.57 K, Mass density=456.58 kg/m3 | 456 kPa/K
599.67 K, Mass density=309.95 kg/m3 | 192 kPa/K and 236 kPa/K
599.78 K, Mass density=308.35 kg/m3 | 192 kPa/K and 234 kPa/K
599.89 K, Mass density=307.35 kg/m3 | 192 kPa/K and 231 kPa/K
599.91 K, Mass density=295.31 kg/m3 | 196 kPa/K
600.02 K, Mass density=305.44 kg/m3 | 192 kPa/K and 229 kPa/K
600.17 K, Mass density=195.99 kg/m3 | 195 kPa/K
600.17 K, Mass density=303.47 kg/m3 | 192 kPa/K and 229 kPa/K
600.29 K, Mass density=301.94 kg/m3 | 192 kPa/K and 228 kPa/K
600.48 K, Mass density=299.79 kg/m3 | 193 kPa/K and 226 kPa/K
600.59 K, Mass density=309.95 kg/m3 | 248 kPa/K
600.63 K, Mass density=297.6 kg/m3 | 193 kPa/K and 225 kPa/K
600.68 K, Mass density=230.31 kg/m3 | 200 kPa/K
600.77 K, Mass density=308.35 kg/m3 | 240 kPa/K
600.81 K, Mass density=295.31 kg/m3 | 193 kPa/K and 224 kPa/K
600.93 K, Mass density=292.97 kg/m3 | 194 kPa/K and 224 kPa/K
600.94 K, Mass density=260.02 kg/m3 | 193 kPa/K
600.94 K, Mass density=305.44 kg/m3 | 237 kPa/K
601.02 K, Mass density=291.16 kg/m3 | 192 kPa/K
601.02 K, Mass density=342.18 kg/m3 | 281 kPa/K
601.05 K, Mass density=291.16 kg/m3 | 193 kPa/K and 223 kPa/K
601.11 K, Mass density=320.33 kg/m3 | 257 kPa/K
601.16 K, Mass density=188.05 kg/m3 | 186 kPa/K and 168 kPa/K
601.19 K, Mass density=227.54 kg/m3 | 200 kPa/K
601.28 K, Mass density=214.43 kg/m3 | 203 kPa/K
601.28 K, Mass density=301.94 kg/m3 | 234 kPa/K
601.34 K, Mass density=285.71 kg/m3 | 196 kPa/K and 222 kPa/K
601.37 K, Mass density=206.01 kg/m3 | 199 kPa/K
601.37 K, Mass density=224.53 kg/m3 | 201 kPa/K
601.45 K, Mass density=297.6 kg/m3 | 225 kPa/K
601.45 K, Mass density=299.79 kg/m3 | 239 kPa/K
601.54 K, Mass density=295.31 kg/m3 | 238 kPa/K
601.71 K, Mass density=230.31 kg/m3 | 202 kPa/K
601.71 K, Mass density=376.89 kg/m3 | 327 kPa/K
601.75 K, Mass density=195.99 kg/m3 | 195 kPa/K and 181 kPa/K
602.05 K, Mass density=218.92 kg/m3 | 201 kPa/K
602.05 K, Mass density=271.09 kg/m3 | 197 kPa/K and 217 kPa/K
602.22 K, Mass density=312.91 kg/m3 | 261 kPa/K
602.26 K, Mass density=206.01 kg/m3 | 199 kPa/K and 188 kPa/K
602.31 K, Mass density=307.35 kg/m3 | 241 kPa/K
602.39 K, Mass density=376.89 kg/m3 | 320 kPa/K
602.45 K, Mass density=260.02 kg/m3 | 199 kPa/K and 215 kPa/K
602.65 K, Mass density=456.58 kg/m3 | 458 kPa/K
602.74 K, Mass density=214.43 kg/m3 | 202 kPa/K and 195 kPa/K
602.74 K, Mass density=342.18 kg/m3 | 286 kPa/K
602.85 K, Mass density=218.92 kg/m3 | 202 kPa/K and 198 kPa/K
602.91 K, Mass density=243.97 kg/m3 | 202 kPa/K and 208 kPa/K
602.96 K, Mass density=224.53 kg/m3 | 202 kPa/K and 200 kPa/K
602.96 K, Mass density=230.31 kg/m3 | 202 kPa/K and 204 kPa/K
602.97 K, Mass density=227.54 kg/m3 | 202 kPa/K and 203 kPa/K
603.08 K, Mass density=311.19 kg/m3 | 256 kPa/K
603.34 K, Mass density=206.01 kg/m3 | 182 kPa/K
603.76 K, Mass density=218.92 kg/m3 | 196 kPa/K
603.85 K, Mass density=214.43 kg/m3 | 191 kPa/K
603.85 K, Mass density=227.54 kg/m3 | 203 kPa/K
604.11 K, Mass density=224.53 kg/m3 | 200 kPa/K
604.11 K, Mass density=230.31 kg/m3 | 205 kPa/K
604.36 K, Mass density=243.97 kg/m3 | 210 kPa/K
605.39 K, Mass density=329 kg/m3 | 275 kPa/K
605.47 K, Mass density=147.43 kg/m3 | 120 kPa/K
606.58 K, Mass density=376.89 kg/m3 | 333 kPa/K
606.76 K, Mass density=195.99 kg/m3 | 172 kPa/K
607.78 K, Mass density=342.18 kg/m3 | 290 kPa/K
607.95 K, Mass density=376.89 kg/m3 | 332 kPa/K
608.04 K, Mass density=309.95 kg/m3 | 261 kPa/K
608.55 K, Mass density=160.07 kg/m3 | 131 kPa/K
609.42 K, Mass density=320.33 kg/m3 | 279 kPa/K
609.48 K, Mass density=195.99 kg/m3 | 168 kPa/K
609.71 K, Mass density=308.35 kg/m3 | 272 kPa/K
609.99 K, Mass density=295.31 kg/m3 | 250 kPa/K
610.25 K, Mass density=312.91 kg/m3 | 270 kPa/K
610.59 K, Mass density=311.19 kg/m3 | 265 kPa/K
610.85 K, Mass density=307.35 kg/m3 | 266 kPa/K
611.44 K, Mass density=299.79 kg/m3 | 257 kPa/K
611.55 K, Mass density=342.18 kg/m3 | 299 kPa/K
611.61 K, Mass density=230.31 kg/m3 | 209 kPa/K
611.61 K, Mass density=301.94 kg/m3 | 259 kPa/K
612.63 K, Mass density=376.89 kg/m3 | 342 kPa/K
615.35 K, Mass density=160.07 kg/m3 | 131 kPa/K
616.03 K, Mass density=311.19 kg/m3 | 277 kPa/K
616.12 K, Mass density=312.91 kg/m3 | 269 kPa/K
616.28 K, Mass density=309.95 kg/m3 | 261 kPa/K
616.37 K, Mass density=329 kg/m3 | 285 kPa/K
617.05 K, Mass density=299.79 kg/m3 | 260 kPa/K
618.4 K, Mass density=342.18 kg/m3 | 304 kPa/K
620.1 K, Mass density=297.6 kg/m3 | 260 kPa/K
624.91 K, Mass density=160.07 kg/m3 | 132 kPa/K
633.33 K, Mass density=160.07 kg/m3 | 134 kPa/K
